Reference: US20110039762A1, “TARGETED ANTIMICROBIAL MOIETIES” (C3 JIAN, INC., priority 2009, published 2011)
Entries after “also recorded” stand apart in the source; their conditions may differ. Bridge positions count the residues as written; N and C are the ends. Square brackets hold non-standard residues; d marks the D form. Ends that are not written are not given here. Peptide text beside a SMILES is read from it. I, II: the chains in the order shown. Aoc = NCCCCCCCC(=O)O

Columns and labels:
[1] = test system: Mixed planktonic populations of P. aeruginosa, E. coli, S. epidermidis, and S. mutans; test: Microbial population shift assay; format: cell-based; conditions: 10 μM peptide, 24 h
Experimental: Peptide (10 μM) or mock-treatment (1× PBS) was then added and samples were incubated at 37° C. for 24 h under anaerobic conditions (80% N2, 15% CO2, 5% H2). […] Plates were then incubated 37° C. under aerobic conditions (TH plates were incubated anaerobically) and colonies counted after 24 h to determine survivors. […] Gram stains and direct microscopic observation (from select isolated colonies) were undertaken to confirm species identity (data not shown). The detection limit of the assay was 200 cfu/mL.

S. mutans [2] = test: Post-antibiotic effect assay (growth retardation after 10 min exposure); format: cell-based, Streptococcus mutans; conditions: S. mutans monoculture, peptide 10 min, then fresh medium
Experimental: The activity and selectivity of MH-STAMPs after a 10 min incubation was determined by growth retardation experiments against targeted and untargeted bacteria in monocultures, as described previously (Id.). Cells from overnight cultures were diluted to ˜5×10^6 cfu/mL in MH (or TH with 1% sucrose for S. mutans), normalized by OD600 0.05-0.1 and seeded to 96-well plates. Cultures were then grown under the appropriate conditions for 2 h (3 h for S. mutans) prior to the addition of peptides for 10 min. Plates were then centrifuged at 3000×g for 5 min, the supernatants discarded, fresh medium returned (MH or TH without sucrose for S. mutans), and incubation resumed. Bacterial growth after treatment was then monitored over time by OD600.

S. pneumoniae [3] = test: Kill or inhibit growth/proliferation; morphology, biofilm and growth disruption (Tables 5, 6); format: cell-based, Streptococcus pneumoniae; design: key: A: Peptide aggregates; B: Less hyphal formation; Clumps; Diffuse clumps and small polyps; F: Diffuse growth; H: Thin; I: Growth inhibition; Microcolony formation; Rippled; Small polyps; Thick; W: Halo formation on top, microlonies on bottom
C. difficile = test: MIC (broth microdilution); format: cell-based, Clostridium difficile
Experimental: (§1) Typically, the in vitro antimicrobial activity of antimicrobial agents is tested using standard NCCLS bacterial inhibition assays, or MIC tests (see, National Committee on Clinical Laboratory Standards “Performance Standards for Antimicrobial Susceptibility Testing,” NCCLS Document M100-S5 Vol. 14, No. 16, December 1994; “Methods for dilution antimicrobial susceptibility test for bacteria that grow aerobically-Third Edition,” Approved Standard M7-A3, National Committee for Clinical Standards, Villanova, Pa.).
(§2) Briefly, ˜1×10^5 cfu/mL bacteria were diluted in TH (S. mutans), or Mueller-Hinton (MH) broth (all other organisms) and distributed to 96-well plates. Serially-diluted (2-fold) peptides were then added and the plates incubated at 37° C. for 18-24 h. […] All experiments were conducted 10 times.

microorganisms = test: Peptides having multiple activities (targeting/binding, antimicrobial, growth or phenotype altering)
Text: In certain embodiments, peptides described herein can have multiple activities. Thus for example, a peptide can have both binding/targeting activity and antimicrobial activity. Such peptides can be used, e.g., in a chimeric construct, for any or all of these properties. Thus, for example, a peptide designated “B” in Table 8 can be used as a targeting peptide. If it is also designated G or M it can also be used for antimicrobial activity.

[4] = test system: microorganisms (e.g., bacteria, yeasts, fungi); test: Targeting peptide binding to target microorganisms (Table 3); conditions: microorganism(s) the targeting peptide binds, preferably 1x PBS
S. epidermidis [5] = format: cell-based, Staphylococcus epidermidis; conditions: S. epidermidis
Experimental: as §1, §2

E. coli = format: cell-based, Escherichia coli; conditions: E. coli
Experimental: as §1, §2

C. albicans [6] = test: Kill or inhibit growth/proliferation; morphology, biofilm and growth disruption (Tables 5, 6); format: cell-based, Candida albicans; design: key: A: Peptide aggregates; B: Less hyphal formation; Clumps; Diffuse clumps and small polyps; F: Diffuse growth; H: Thin; I: Growth inhibition; Microcolony formation; Rippled; Small polyps; Thick; W: Halo formation on top, microlonies on bottom
MRSA [7] = test: as above; format: cell-based, Methicillin-resistant Staphylococcus aureus; design: key: A: Peptide aggregates; B: Less hyphal formation; Clumps; Diffuse clumps and small polyps; F: Diffuse growth; H: Thin; I: Growth inhibition; Microcolony formation; Rippled; Small polyps; Thick; W: Halo formation on top, microlonies on bottom
S. mutans [8] = format: cell-based, Streptococcus mutans; conditions: S. mutans
S. pneumoniae [9] = test: MIC (broth microdilution); format: cell-based, Streptococcus pneumoniae
Experimental: as §1, §2

MRSA [10] = test: MIC (broth microdilution); format: cell-based, Methicillin-resistant Staphylococcus aureus
Outline: (§3)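 MIC determined per NCCLS standard microdilution, with peptide 2-fold dilution series against ˜1×10^5 cfu/mL cells in Mueller-Hinton medium, incubated 18-24 h at 37° C.; ten independent experiments.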

S. mutans [11] = test: Kill or inhibit growth/proliferation; morphology, biofilm and growth disruption (Tables 5, 6); format: cell-based, Streptococcus mutans; design: key: A: Peptide aggregates; B: Less hyphal formation; Clumps; Diffuse clumps and small polyps; F: Diffuse growth; H: Thin; I: Growth inhibition; Microcolony formation; Rippled; Small polyps; Thick; W: Halo formation on top, microlonies on bottom
S. epidermidis [12] = test: as above; format: cell-based, Staphylococcus epidermidis; design: key: A: Peptide aggregates; B: Less hyphal formation; Clumps; Diffuse clumps and small polyps; F: Diffuse growth; H: Thin; I: Growth inhibition; Microcolony formation; Rippled; Small polyps; Thick; W: Halo formation on top, microlonies on bottom
A. baumannii = test: MIC (broth microdilution); format: cell-based, Acinetobacter baumannii
Experimental: as §1, §2

M. luteus = test: Kill or inhibit growth/proliferation; morphology, biofilm and growth disruption (Tables 5, 6); format: cell-based, Micrococcus luteus; design: key: A: Peptide aggregates; B: Less hyphal formation; Clumps; Diffuse clumps and small polyps; F: Diffuse growth; H: Thin; I: Growth inhibition; Microcolony formation; Rippled; Small polyps; Thick; W: Halo formation on top, microlonies on bottom
C. albicans [13] = test: MIC (broth microdilution); format: cell-based, Candida albicans
Experimental: as §1, §2

T. rubrum = test: MIC (broth microdilution); format: cell-based, Trichophyton rubrum
Experimental: as §1, §2

B. subtilis [14] = test: MIC (broth microdilution); format: cell-based, Bacillus subtilis
Outline: as §3

B. subtilis [15] = test: Kill or inhibit growth/proliferation; morphology, biofilm and growth disruption (Tables 5, 6); format: cell-based, Bacillus subtilis; design: key: A: Peptide aggregates; B: Less hyphal formation; Clumps; Diffuse clumps and small polyps; F: Diffuse growth; H: Thin; I: Growth inhibition; Microcolony formation; Rippled; Small polyps; Thick; W: Halo formation on top, microlonies on bottom
[16] = test system: BHK-21 (ATCC CRL-10) fibroblasts; test: Cytotoxicity, Promega CellTiterGlo assay; format: cell-based, hamster; conditions: BHK, at either 5 min or 24 h, with or without light
Experimental: Streptococcus oralis ATCC 10557, Streptococcus gordonii (Challis), Streptococcus sanguinis (NY101), Streptococcus mitis ATCC 903, Streptococcus salivarius ATCC 13419 and S. mutans wild-type UA140 and JM11 (spectinomycin-resistant) strains were grown in Todd-Hewitt (TH) broth 37° C. in an anaerobic atmosphere of 80% N2, 10% CO2, and 10% H2. BHK-21 (ATCC CRL-10) fibroblasts were propagated in DMEM with 10% FBS, 1 mM sodium pyruvate, 100 units/mL penicillin G, and 100 μg/mL streptomycin at 37° C. with 5% CO2. Cells were detached with 0.25% trypsin and subcultured as recommended by the supplier.
The effect of RB and C16-RB on […] fibroblasts was ascertained by utilizing the Promega CellTiterGlo assay, as described by the manufacturer. Briefly, fibroblasts were grown to confluence, detached, and seeded to ˜5,000 cells per well in a 96-well opaque walled, clear bottom 96-well plate (Nunc International). For long-term dark toxicity, cells were allowed to attach to for 18 h before the culture medium was replaced with medium plus serially-diluted RB or C16-RB (200 μM to 390 nM) or medium alone. After 18-24 h, equal volume Cell Titer Glo reagent was added to each well and mixed. Luciferace activity was then quantified to measure cell viability (Varian Fluorometer in Biolumenescence mode). To measure cytotoxicity after RB or C16-RB light exposure, cells were seeded at ˜10,000 cells per well and allowed to attach for 4 h. Cell growth medium was then replaced with RB or C16-RB containing medium, prior to exposure (a single well at a time) with blue light (400 mW/cm^2) suspended ˜3 cm from the well bottom. After exposure, cultures were disrupted with Cell Titer Glo and luciferase activity quantitated as above.

S. mutans [17] = test: Anti-S. mutans STAMP activity in vitro, also in formulations; format: cell-based, Streptococcus mutans
[18] = binding in aqueous buffers depending on peptide solubility

CC[C@H](C)[C@H](NC(=O)[C@H](Cc1ccccc1)NC(=O)CCCCCCCNC(=O)[C@H](CCCCNC(=O)CNC(=O)CNC(=O)CNC(=O)[C@H](C)NC(=O)[C@H](CCC(=O)O)NC(=O)[C@H](CC(N)=O)NC(=O)[C@H](C)NC(=O)[C@H](C)NC(=O)[C@@H](N)CC(=O)O)NC(=O)CNC(=O)CNC(=O)CNC(=O)[C@H](CCCNC(=N)N)NC(=O)[C@H](CC(N)=O)NC(=O)[C@H](CC(C)C)NC(=O)[C@H](Cc1ccccc1)NC(=O)[C@H](CCCNC(=N)N)NC(=O)[C@H](Cc1ccccc1)NC(=O)[C@H](Cc1ccccc1)NC(=O)[C@@H](NC(C)=O)[C@@H](C)O)C(=O)N[C@@H](CCCNC(=N)N)C(=O)N[C@@H](CCCCN)C(=O)N[C@@H](Cc1ccccc1)C(=O)N[C@@H](CC(C)C)C(=O)N[C@@H](CCCCN)C(=O)N[C@@H](CCCCN)C(=O)N[C@@H](Cc1c[nH]c2ccccc12)C(=O)N[C@@H](CC(C)C)C(=O)N[C@@H](CC(C)C)C(N)=O [M8(BL)-20] (I: Ac-TFFRFLNRGGGK[Aoc]FIRKFLKKWLL-NH2 / II: H-DAANEAGGG; amide I:12-II:C) was tested, and the “recoverable (surviving) cfu/mL” value ([1]; E. coli in mixed culture) was “not affected or affected to a lesser extent”, the “recoverable (surviving) cfu/mL” value ([1]; P. aeruginosa in mixed culture) was “not affected or affected to a lesser extent” and the “recoverable (surviving) cfu/mL” value ([1]; S. epidermidis in mixed culture) was “not affected or affected to a lesser extent”. For the same compound, the “recoverable (surviving) cfu/mL” value ([1]; S. mutans in mixed culture) was “greatly reduced compared to input cfu/mL” and the “bacterial growth (OD600) after treatment” value (S. mutans [2]) was “effectively retarded”.
In the case of FELVDWLETNLGKILKSKSA-NH2 [PF-522], the “Organism, effect” value (S. pneumoniae [3]) is reported as “S. pneumoniae (H)”, the MIC (C. difficile) is reported as “C. difficile, 25 μM” and the Activities (microorganisms) is reported as “G B M”. The “Target(s)” value ([4]; peptide binding conducted in aqueous buffers varied by peptide solubility) was “S. epidermidis; also recorded: E. coli; also recorded: P. aeruginosa; also recorded: S. pneumoniae; also recorded: E. faecalis”.
For “FESKILNASKELDKEKKVNTALSFNSHQDFAKAYQNGKI [PF-606]”, the MIC (S. epidermidis [5]) was “S. epidermidis, 50 μM”, the MIC (E. coli) was “E. coli, 50 μM” and the “Organism, effect” value (S. pneumoniae [3]) was “S. pneumoniae (H)”. The “Organism, effect” value (C. albicans [6]) was “C. albicans (B)”, the “Organism, effect” value (MRSA [7]) was “MRSA (I)” and the MIC (S. mutans [8]) was “S. mutans, 50 μM”. The Activities (microorganisms) was “G M”, the MIC (S. pneumoniae [9]) was “S. pneumoniae, 50 μM” and the MIC (MRSA [10]) was “MRSA , 50 μM”. The “Organism, effect” value (S. mutans [11]) was “S. mutans (I)” and the “Organism, effect” value (S. epidermidis [12]) was “S. epidermidis (I)”.
With KNKKQTDILEKVKEILDKKKKTKSVGQKLY [PF-538] the “Organism, effect” value (S. pneumoniae [3]) was “S. pneumoniae (H)”, the MIC (C. difficile) was “C. difficile, 25 μM” and the Activities (microorganisms) was “G M”. The MIC (A. baumannii) was “A. baumannii, 25 μM”.
For LSLATFAKIFMTRSNWSLKRFNRL [PF-278], the “Organism, effect” value (M. luteus) was “M. luteus (R)”, the MIC (S. epidermidis [5]) was “S. epidermidis, 50 μM” and the “Organism, effect” value (C. albicans [6]) was “C. albicans (B)”. The MIC (C. albicans [13]) was “C. albicans, 50 μM”, the Activities (microorganisms) was “G B M” and the “Target(s)” value [4, 18] was “M. luteus; also recorded: A. baumannii”. The MIC (T. rubrum) was “T. rubrum, 50 μM” and the “Organism, effect” value (S. epidermidis [12]) was “S. epidermidis (I)”.
In the case of “MKRRRCNWCGKLFYLEEKSKEAYCCKECRKKAKKVKK [PF-307]”, the MIC (B. subtilis [14]) is reported as “B. subtilis, 50 μM”, the “Organism, effect” value (B. subtilis [15]) is reported as “B. subtilis (H)” and the “Organism, effect” value (C. albicans [6]) is reported as “C. albicans (B)”. The MIC (C. albicans [13]) was “C. albicans, 50 μM”, the Activities (microorganisms) was “G B M” and the “Target(s)” value [4, 18] was “S. epidermidis; also recorded: B. subtilis; also recorded: B. fragilis; also recorded: C. difficile”. For the same compound, the MIC (T. rubrum) was “T. rubrum, 50 μM” and the “Organism, effect” value (S. epidermidis [12]) was “S. epidermidis (T)”.
With Melittin B the IC50 [16] was less than 1.56 µM.
With “TFFRLFNRSFTQALGKGGGKNLRIIRKGIHIIKKY* (not fully specified (C-terminus); printed as TFFRLFNRSFTQALGKGGGKNLRIIRKGIHIIKKY*) [Peptide C16G2]” the “PBS strength at activity optimum” value (S. mutans [17]; PBS formulations 0.5× to about 2.5× PBS) was “about 1 × PBS”, the anti-S. mutans activity (S. mutans [17]; phosphate buffered saline (PBS) formulation) was “active” and the anti-S. mutans activity (S. mutans [17]; water-based salt-free buffers and nanoemulsions) was “substantially inactive”.
